Measured values taken from article PMC10174618, “Monoterpenoid aryl hydrocarbon receptor allosteric antagonists protect against ultraviolet skin damage in female mice” (Nature Communications, 2023).

Columns and labels:
Experiment in all cases: biochemical
Design in all cases: KINOMEscan scanMAX active site-directed competition binding assay, percent of control, 468 kinases
Settings in all cases: competition binding, percent of control
NEK2 = NEK2 (Homo sapiens, UniProt P51955)
Method in brief: (§1)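 KINOMEscan active site-directed competition binding assay against 468 human kinases with 100 μM S-carvone. Binding expressed as % of control, with 35% of control as the inhibition threshold.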

FLT3(K663Q) = FLT3(K663Q) (Homo sapiens, UniProt P36888, K663Q)
Method in brief: as §1

RIOK2 = RIOK2 (Homo sapiens, UniProt Q9BVS4)
Method in brief: as §1

NIM1 = biological target: T1, NIM1 (Homo sapiens, UniProt Q8IY84)
T1 construct: gene NIM1K
Method in brief: as §1

AXL = AXL (Homo sapiens, UniProt P30530)
Method in brief: as §1

STK16 = STK16 (Homo sapiens, UniProt O75716)
Method in brief: as §1

WNK2 = WNK2 (Homo sapiens, UniProt Q9Y3S1)
Method in brief: as §1

[1] = biological target: T2, RSK4(Kin.Dom.2-C-terminal) (Homo sapiens, UniProt Q9UK32)
T2 construct: gene RPS6KA6; Kin.Dom.2-C-terminal
Method in brief: as §1

EGFR(L858R) = EGFR(L858R) (Homo sapiens, UniProt P00533, L858R)
Method in brief: as §1

STK35 = STK35 (Homo sapiens, UniProt Q8TDR2)
Method in brief: as §1

WNK3 = WNK3 (Homo sapiens, UniProt Q9BYP7)
Method in brief: as §1

VRK2 = VRK2 (Homo sapiens, UniProt Q86Y07)
Method in brief: as §1

RET(M918T) = RET(M918T) (Homo sapiens, UniProt P07949, M918T)
Method in brief: as §1

KIT(L576P) = KIT(L576P) (Homo sapiens, UniProt P10721, L576P)
Method in brief: as §1

PAK7 = biological target: T3, PAK7 (Homo sapiens, UniProt Q9P286)
T3 construct: gene PAK5
Method in brief: as §1

LRRK2 = LRRK2 (Homo sapiens, UniProt Q5S007)
Method in brief: as §1

RIPK1 = RIPK1 (Homo sapiens, UniProt Q13546)
Method in brief: as §1

ZAP70 = ZAP70 (Homo sapiens, UniProt P43403)
Method in brief: as §1

ICK = biological target: T4, ICK (Homo sapiens, UniProt Q9UPZ9)
T4 construct: gene CILK1
Method in brief: as §1

MET(Y1235D) = MET(Y1235D) (Homo sapiens, UniProt P08581, Y1235D)
Method in brief: as §1

PIK3CA(H1047Y) = PIK3CA(H1047Y) (Homo sapiens, UniProt P42336, H1047Y)
Method in brief: as §1

Chain of MET(Y1235D) (P08581 whole entry Y1235D): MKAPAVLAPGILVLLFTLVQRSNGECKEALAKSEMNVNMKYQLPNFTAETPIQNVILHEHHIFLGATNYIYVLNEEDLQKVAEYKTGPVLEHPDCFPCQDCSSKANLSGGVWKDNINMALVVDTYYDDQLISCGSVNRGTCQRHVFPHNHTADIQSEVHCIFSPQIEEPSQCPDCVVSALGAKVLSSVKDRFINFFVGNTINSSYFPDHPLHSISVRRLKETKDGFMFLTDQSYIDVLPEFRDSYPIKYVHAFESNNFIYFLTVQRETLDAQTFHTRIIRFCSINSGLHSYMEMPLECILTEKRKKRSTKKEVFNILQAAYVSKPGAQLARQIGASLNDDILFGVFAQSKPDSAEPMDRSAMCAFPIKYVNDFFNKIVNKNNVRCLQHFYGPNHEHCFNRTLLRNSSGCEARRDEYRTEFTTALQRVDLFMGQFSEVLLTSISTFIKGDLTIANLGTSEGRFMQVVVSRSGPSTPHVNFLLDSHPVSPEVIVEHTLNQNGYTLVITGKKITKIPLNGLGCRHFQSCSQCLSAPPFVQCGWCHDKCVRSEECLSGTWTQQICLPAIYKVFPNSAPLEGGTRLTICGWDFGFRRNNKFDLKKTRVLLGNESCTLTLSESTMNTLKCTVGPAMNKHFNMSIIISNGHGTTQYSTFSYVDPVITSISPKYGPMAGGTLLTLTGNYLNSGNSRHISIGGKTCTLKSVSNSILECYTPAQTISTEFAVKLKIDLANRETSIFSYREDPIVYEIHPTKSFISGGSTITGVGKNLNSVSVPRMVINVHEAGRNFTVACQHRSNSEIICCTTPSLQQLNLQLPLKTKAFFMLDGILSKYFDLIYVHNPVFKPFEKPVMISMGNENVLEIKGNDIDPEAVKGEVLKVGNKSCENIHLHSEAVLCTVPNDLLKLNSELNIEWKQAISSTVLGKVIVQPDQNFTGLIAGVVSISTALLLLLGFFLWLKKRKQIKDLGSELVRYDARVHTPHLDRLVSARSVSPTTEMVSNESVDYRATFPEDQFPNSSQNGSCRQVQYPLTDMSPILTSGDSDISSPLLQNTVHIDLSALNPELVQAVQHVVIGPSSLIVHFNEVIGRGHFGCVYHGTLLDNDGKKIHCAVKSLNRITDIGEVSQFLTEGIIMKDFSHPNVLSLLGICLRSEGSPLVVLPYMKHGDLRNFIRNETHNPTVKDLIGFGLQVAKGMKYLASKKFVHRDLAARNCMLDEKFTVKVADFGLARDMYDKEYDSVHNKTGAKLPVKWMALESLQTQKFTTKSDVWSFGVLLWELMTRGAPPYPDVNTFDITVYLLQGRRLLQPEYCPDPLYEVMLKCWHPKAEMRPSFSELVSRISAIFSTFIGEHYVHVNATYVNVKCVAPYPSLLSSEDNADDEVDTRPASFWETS
Chain of AXL (P30530 whole entry): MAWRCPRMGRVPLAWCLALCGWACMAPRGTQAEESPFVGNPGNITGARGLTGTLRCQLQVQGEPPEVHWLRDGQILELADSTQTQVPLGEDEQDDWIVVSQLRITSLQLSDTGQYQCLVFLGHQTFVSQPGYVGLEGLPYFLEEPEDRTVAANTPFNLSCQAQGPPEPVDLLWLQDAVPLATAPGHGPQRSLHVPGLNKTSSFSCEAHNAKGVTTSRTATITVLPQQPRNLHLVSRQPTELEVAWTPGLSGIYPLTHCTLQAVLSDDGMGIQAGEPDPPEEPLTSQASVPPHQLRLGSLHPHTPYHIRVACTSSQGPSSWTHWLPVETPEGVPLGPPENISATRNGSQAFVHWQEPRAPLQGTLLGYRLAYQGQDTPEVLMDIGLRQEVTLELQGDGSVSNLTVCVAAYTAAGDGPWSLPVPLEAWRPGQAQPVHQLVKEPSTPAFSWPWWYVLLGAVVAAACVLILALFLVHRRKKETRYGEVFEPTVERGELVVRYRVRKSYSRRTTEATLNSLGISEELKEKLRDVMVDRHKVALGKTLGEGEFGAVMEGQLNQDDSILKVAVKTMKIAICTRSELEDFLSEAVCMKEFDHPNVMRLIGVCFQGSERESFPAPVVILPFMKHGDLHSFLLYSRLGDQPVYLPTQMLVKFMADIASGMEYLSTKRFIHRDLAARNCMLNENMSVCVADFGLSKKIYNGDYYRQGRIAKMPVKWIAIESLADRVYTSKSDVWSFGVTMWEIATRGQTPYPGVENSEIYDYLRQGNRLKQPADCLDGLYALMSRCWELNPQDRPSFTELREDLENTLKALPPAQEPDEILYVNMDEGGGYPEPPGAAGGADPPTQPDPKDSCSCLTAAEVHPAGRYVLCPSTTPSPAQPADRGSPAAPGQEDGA
Chain of LRRK2 (Q5S007 whole entry): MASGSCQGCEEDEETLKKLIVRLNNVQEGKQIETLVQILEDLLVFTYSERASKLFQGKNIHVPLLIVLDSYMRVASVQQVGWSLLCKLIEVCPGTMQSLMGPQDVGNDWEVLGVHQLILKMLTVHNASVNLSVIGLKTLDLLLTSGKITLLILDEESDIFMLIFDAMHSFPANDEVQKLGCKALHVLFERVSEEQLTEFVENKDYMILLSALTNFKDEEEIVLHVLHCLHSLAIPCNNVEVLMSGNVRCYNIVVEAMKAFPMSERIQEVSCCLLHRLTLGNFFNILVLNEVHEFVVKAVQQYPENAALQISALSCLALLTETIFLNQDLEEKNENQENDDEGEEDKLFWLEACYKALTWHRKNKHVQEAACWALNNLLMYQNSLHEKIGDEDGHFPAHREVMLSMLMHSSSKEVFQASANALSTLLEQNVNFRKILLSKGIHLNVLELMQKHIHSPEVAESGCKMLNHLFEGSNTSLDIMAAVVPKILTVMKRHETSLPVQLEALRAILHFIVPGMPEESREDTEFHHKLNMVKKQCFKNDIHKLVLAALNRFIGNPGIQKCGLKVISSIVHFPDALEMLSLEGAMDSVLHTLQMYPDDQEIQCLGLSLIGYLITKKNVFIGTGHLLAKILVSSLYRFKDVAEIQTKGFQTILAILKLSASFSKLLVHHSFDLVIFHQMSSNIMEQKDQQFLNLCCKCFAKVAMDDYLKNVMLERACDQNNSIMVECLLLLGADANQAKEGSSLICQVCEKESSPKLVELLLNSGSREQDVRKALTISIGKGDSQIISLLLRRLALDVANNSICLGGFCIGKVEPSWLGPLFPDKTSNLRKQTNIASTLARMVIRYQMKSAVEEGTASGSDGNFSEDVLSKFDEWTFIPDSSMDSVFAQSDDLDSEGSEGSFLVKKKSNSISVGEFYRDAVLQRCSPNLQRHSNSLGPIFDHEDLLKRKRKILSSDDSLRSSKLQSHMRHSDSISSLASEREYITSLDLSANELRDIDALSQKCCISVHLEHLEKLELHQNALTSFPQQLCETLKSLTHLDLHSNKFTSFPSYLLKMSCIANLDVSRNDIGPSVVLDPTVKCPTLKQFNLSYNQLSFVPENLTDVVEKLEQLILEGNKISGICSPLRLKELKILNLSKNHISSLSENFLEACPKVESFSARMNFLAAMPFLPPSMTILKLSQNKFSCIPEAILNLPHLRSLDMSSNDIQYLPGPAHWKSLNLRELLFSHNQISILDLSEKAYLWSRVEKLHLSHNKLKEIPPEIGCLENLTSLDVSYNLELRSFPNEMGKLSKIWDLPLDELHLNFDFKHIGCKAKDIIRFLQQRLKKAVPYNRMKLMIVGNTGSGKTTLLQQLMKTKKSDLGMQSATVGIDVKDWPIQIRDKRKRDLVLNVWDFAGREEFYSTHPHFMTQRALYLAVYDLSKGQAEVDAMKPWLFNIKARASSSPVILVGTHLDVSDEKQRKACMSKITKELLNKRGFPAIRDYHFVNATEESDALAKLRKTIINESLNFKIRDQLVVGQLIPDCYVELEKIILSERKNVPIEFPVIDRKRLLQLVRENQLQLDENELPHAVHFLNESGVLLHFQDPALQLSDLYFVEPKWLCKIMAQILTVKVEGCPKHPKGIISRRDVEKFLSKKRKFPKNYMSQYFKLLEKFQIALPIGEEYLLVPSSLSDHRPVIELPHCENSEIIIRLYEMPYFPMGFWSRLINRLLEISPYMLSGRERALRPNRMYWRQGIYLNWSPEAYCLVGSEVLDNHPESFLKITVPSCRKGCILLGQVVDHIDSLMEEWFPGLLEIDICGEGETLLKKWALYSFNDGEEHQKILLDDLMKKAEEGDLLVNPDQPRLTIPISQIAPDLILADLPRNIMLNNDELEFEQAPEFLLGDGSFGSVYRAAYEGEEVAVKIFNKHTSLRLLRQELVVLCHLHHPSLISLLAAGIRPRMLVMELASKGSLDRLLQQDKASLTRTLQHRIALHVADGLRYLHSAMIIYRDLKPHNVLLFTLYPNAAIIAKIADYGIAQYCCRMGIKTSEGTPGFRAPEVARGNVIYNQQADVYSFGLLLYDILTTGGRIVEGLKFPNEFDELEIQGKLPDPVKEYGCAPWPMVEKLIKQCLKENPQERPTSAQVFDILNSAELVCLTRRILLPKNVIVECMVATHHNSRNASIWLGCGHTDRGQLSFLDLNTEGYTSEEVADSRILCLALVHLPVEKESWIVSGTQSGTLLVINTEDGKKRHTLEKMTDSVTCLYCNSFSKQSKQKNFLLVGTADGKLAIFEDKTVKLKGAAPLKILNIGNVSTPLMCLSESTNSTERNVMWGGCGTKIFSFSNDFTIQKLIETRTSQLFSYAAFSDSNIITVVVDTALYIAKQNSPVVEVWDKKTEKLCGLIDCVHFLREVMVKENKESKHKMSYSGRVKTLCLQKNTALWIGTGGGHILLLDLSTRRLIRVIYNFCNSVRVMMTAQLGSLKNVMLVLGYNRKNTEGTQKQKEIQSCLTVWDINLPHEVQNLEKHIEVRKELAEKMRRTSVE
Chain of STK16 (O75716 whole entry): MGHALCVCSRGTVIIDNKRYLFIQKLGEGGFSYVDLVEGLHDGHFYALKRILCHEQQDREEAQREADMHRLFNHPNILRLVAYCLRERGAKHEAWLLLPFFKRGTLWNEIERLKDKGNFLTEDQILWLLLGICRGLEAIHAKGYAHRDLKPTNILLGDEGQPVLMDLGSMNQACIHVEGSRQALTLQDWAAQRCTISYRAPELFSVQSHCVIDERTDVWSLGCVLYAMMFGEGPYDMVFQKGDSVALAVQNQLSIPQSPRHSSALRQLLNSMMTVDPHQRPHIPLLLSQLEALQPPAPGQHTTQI

C=C(C)[C@H]1CC=C(C)C(=O)C1 [S-carvone]
remaining binding at 100 µM (NEK2): 100% | remaining binding at 100 µM (FLT3(K663Q)): 95% | remaining binding at 100 µM (RIOK2): 90% | remaining binding at 100 µM (NIM1): 65% | remaining binding at 100 µM (AXL): 82% | remaining binding at 100 µM (STK16): 90% | remaining binding at 100 µM (WNK2): 77% | remaining binding at 100 µM [1]: 57% | remaining binding at 100 µM (EGFR(L858R)): 85% | remaining binding at 100 µM (STK35): 92% | remaining binding at 100 µM (WNK3): 100% | remaining binding at 100 µM (VRK2): 81% | remaining binding at 100 µM (RET(M918T)): 93% | remaining binding at 100 µM (KIT(L576P)): 71% | remaining binding at 100 µM (PAK7): 100% | remaining binding at 100 µM (LRRK2): 100% | remaining binding at 100 µM (RIPK1): 87% | remaining binding at 100 µM (ZAP70): 84% | remaining binding at 100 µM (ICK): 97% | remaining binding at 100 µM (MET(Y1235D)): 87% | remaining binding at 100 µM (PIK3CA(H1047Y)): 92%
